Test results from patent publication US20110166121A1 (LG LIFE SCIENCES LTD., priority 2008, published 2011).

The molecules below were run on Human platelet aggregation caused by ADP (assay: Inhibition of ADP-induced platelet aggregation (Mimic-human PRP)). Conditions: 20 μM ADP, human platelet concentrate diluted with PPP, absorption at 595 nm.
Type: cell-based
Outline: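 Human PRP diluted with PPP to 3–4×10^8 platelets/mL was preincubated 20 min at room temperature with compound (0.01–30 μM, DMSO), then stimulated with 20 μM ADP. Aggregation read as A595 increase at 3 min versus 0 and 20 μM ADP controls; Ki from sigmoidal non-linear regression.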

Row | Structure (SMILES) | Ki
1 | CCCc1cc2c(N3CCn4c(nnc4C(F)(F)F)C3)nc(N(C)CCO)nc2s1 [Example 9-106, 2-{Methyl-[6-propyl-4-(3-trifluoromethyl-5,6-dihydro-8H-[1,2,4]triazolo[4,3-a]pyrazin-7-yl)-thieno[2,3-d]pyrimidin-2-yl]-amino}-ethanol] | 0.14 µM
2 | CCCC(=O)N1CC[C@@H](COc2nc(N3CCn4c(nnc4C(F)(F)F)C3)c3cc(CCC)sc3n2)C1 [Example 8-35, 1-{(R)-3-[6-Propyl-4-(3-trifluoromethyl-5,6-dihydro-8H-[1,2,4]triazolo[4,3-a]pyrazin-7-yl)-thieno[2,3-d]pyrimidin-2-yloxymethyl]-pyrrolidin-1-yl}-butan-1-one] | 0.049 µM
3 | CCCc1cc2c(N3CCn4c(nnc4C(F)(F)F)C3)nc(-n3ccc([N+](=O)[O-])c3)nc2s1 [Example 9-47, 7-[2-(3-Nitro-pyrrole-1-yl)-6-propyl-thieno[2,3-d]pyrimidin-4-yl]-3-trifluoromethyl-5,6,7,8-tetrahydro-[1,2,4]triazolo[4,3-a]pyrazine] | 3.9 µM

The molecules below were run against T1, Human P2Y12 receptor (Homo sapiens, UniProt Q9H244) (assay: Human P2Y12 receptor cell membrane binding assay with [3H] 2-Mes-ADP). Conditions: 1 nM [3H] 2-Mes-ADP, membranes of HEK cells expressing P2Y12 receptor; read-out: Binding activity (IC50).
T1 construct: expressed in transfected cells; host or cells: HEK cells
T1 sequence (Q9H244 whole entry): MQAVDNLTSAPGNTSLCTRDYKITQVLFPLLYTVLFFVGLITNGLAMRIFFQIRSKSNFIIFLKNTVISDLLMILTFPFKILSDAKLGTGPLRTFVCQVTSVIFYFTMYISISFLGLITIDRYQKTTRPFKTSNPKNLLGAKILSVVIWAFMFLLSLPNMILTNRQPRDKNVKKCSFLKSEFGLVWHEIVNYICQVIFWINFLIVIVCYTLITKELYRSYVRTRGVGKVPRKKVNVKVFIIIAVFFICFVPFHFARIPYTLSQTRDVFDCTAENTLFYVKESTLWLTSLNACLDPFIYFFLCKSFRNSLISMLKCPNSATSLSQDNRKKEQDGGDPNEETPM
Experimental: Human P2Y12 Receptor Cell Membrane Binding Assay with [^3H] 2-Mes-ADP
Whether test compounds bind to P2Y12 receptor is measured by [3H]-2MesADP binding in HEK cells expressing P2Y12 receptor. The efficacy according to the amount of test compound can be known through the above test, competitive binding test to P2Y12 receptor, in which the binding material (2-Mes-ADP) is labeled with radioactivity isotope and then the extent of inhibition against the binding of radioactively labeled material is measured.
Preparation of P2Y12 Membrane Protein Fraction
Harvested P2Y12 cells were resuspended with Hypotonic buffer (10 mM HEPES, 10 mM NaCl, 1 mM EDTA, 1 mM EGTA pH 7.4) containing protease inhibitor cocktail. Following the incubation on ice for 15 min, cells were homogenized on ice (Glass/Teflon homogenizer; 1,000 rpm, 10 strokes). The supernant was taken from centrifugation at 500×g for 15 min and then recentrifuged the supernant at 30,000 rpm for 30 min. The membrane pellet was adjusted to 1 mg/mL concentration and stored at −80° C.
P2Y12 Receptor Cell Membrane Binding Assay with [3H] 2-Mes-ADP
The volume of 100 μL of 200 μg membrane protein was aliquoted into 96 well plate. 50 μL volume of test compounds and [^3H] 2-Mes-ADP (final: 1 nM) were added into each well. The total reaction of 0.2 ml/well was incubated for 1 hour at R.T. The reaction was terminated by filtration through GF/B filter using a 96-well cell harvester. […] Radioactivity bound to P2Y12 receptor membrane was counted in a scintillation counter. Total binding was determined with CPM of test group having no compound and non-specific binding was determined with CPM of test group containing 10 μM 2-Mes-ADP. Binding inhibition percent was calculated as follows: [100−(specific binding in the presence of test material/specific binding in the absence of test material×100)].

Row | IC50 | Structure (SMILES)
4 | 21.5 µM | CCc1cc2c(N3CCc4c([nH]n(-c5ccccc5)c4=O)C3)nc(N3CCNC(=O)C3)nc2s1 [Example 6-44, 6-[6-Ethyl-2-(3-oxo-piperazin-1-yl)-thieno[2,3-d]pyrimidin-4-yl]-2-phenyl-1,2,4,5,6,7-hexahydro-pyrazolo[3,4-c]pyridin-3-one]
5 | 2.3 µM | CCc1cc2c(N3CCc4c(nc(C)nc4C(F)(F)F)C3)nc(OCC(O)CO)nc2s1 (stereo not shown) [Example 6-35, 3-[6-Ethyl-4-(2-methyl-4-trifluoromethyl-5,8-dihydro-6H-pyrido[3,4-d]pyrimidin-7-yl)-thieno[2,3-d]pyrimidin-2-yloxy]-propane-1,2-diol]
6 | 4.66 µM | CCc1cc2c(N3CCc4c(nc(C(F)(F)F)nc4C(F)(F)F)C3)nc(N3CCNC(=O)C3)nc2s1 [Example 6-31, 4-[4-(2,4-Bis-trifluoromethyl-5,8-dihydro-6H-pyrido[3,4-d]pyrimidin-7-yl)-6-ethyl-thieno[2,3-d]pyrimidin-2-yl]-piperazin-2-one]
7 | 16.4 µM | CCc1cc2c(N3CCc4[nH]nc(C(F)(F)F)c4C3)nc(N3CCNC(=O)C3)nc2s1 [Example 6-26, 4-[6-Ethyl-4-(3-trifluoromethyl-1,4,6,7-tetrahydro-pyrazolo[4,3-c]pyridin-5-yl)-thieno[2,3-d]pyrimidin-2-yl]-piperazin-2-one]
8 | 12 µM | CCc1cc2c(N3CCn4cc(C(F)(F)F)nc4C3)nc(OCC(O)CO)nc2s1 (stereo not shown) [Example 6-23, 3-[6-Ethyl-4-(2-trifluoromethyl-5,6-dihydro-8H-imidazo[1,2-a]pyrazin-7-yl)-thieno[2,3-d]pyrimidin-2-yloxy]-propane-1,2-diol]
9 | 10 µM | CCc1cc2c(N3CCn4cc(C(F)(F)F)nc4C3)nc(N3CCNC(=O)C3)nc2s1 [Example 6-22, 4-[6-Ethyl-4-(2-trifluoromethyl-5,6-dihydro-8H-imidazo[1,2-a]pyrazin-7-yl)-thieno[2,3-d]pyrimidin-2-yl]-piperazin-2-one]
10 | 0.64 µM | CCCc1cc2c(N3CCc4c(nc(C)nc4C(F)(F)F)C3)nc(N3CCNC(=O)C3)nc2s1 [Example 6-36, 4-[4-(2-Methyl-4-trifluoromethyl-5,8-dihydro-6H-pyrido[3,4-d]pyrimidin-7-yl)-6-propyl-thieno[2,3-d]pyrimidin-2-yl]-piperazin-2-one]
11 | 1.15 µM | CCc1nc2c(N3CCn4c(nnc4C(F)(F)F)C3)nc(N3CCN(C)CC3)nc2s1 [Example 5-3, 2-Ethyl-5-(4-methyl-piperazin-1-yl)-7-(3-trifluoromethyl-5,6-dihydro-8H-[1,2,4]triazolo[4,3-a]pyrazin-7-yl)-thiazolo[5,4-d]pyrimidine]
12 | 1.95 µM | CCc1cc2c(N3CCc4c(nc(-c5ccoc5)nc4C(F)(F)F)C3)nc(NCC(O)CO)nc2s1 (stereo not shown) [Example 6-40, 3-[6-Ethyl-4-(2-furan-3-yl-4-trifluoromethyl-5,8-dihydro-6H-pyrido[3,4-d]pyrimidin-7-yl)-thieno[2,3-d]pyrimidin-2-ylamino]-propane-1,2-diol]
13 | 0.133 µM | CCc1cc2c(N3CCn4c(nnc4C(F)(F)C(F)(F)F)C3)nc(N3CCNC(=O)C3)nc2s1 [Example 6-1, 4-[6-Ethyl-4-(3-pentafluoroethyl-5,6-dihydro-8H-[1,2,4]triazolo[4,3-a]pyrazin-7-yl)-thieno[2,3-d]pyrimidin-2-yl]-piperazin-2-one]
14 | 3.05 µM | CCCc1cc2c(N3CCn4c(nnc4C(F)(F)F)C3)nc(C(=O)O)nc2s1 [Example 4-2, 6-Propyl-4-(3-trifluoromethyl-5,6-dihydro-8H-[1,2,4]triazolo[4,3-a]pyrazin-7-yl)-thieno[2,3-d]pyrimidine-2-carboxylic acid]
15 | 1 µM | CCc1cc2c(N3CCn4c(nnc4C(F)(F)F)C3)nc(C(=O)NCC(=O)O)nc2s1 [Example 4-4, {[6-Ethyl-4-(3-trifluoromethyl-5,6-dihydro-8H-[1,2,4]triazolo[4,3-a]pyrazin-7-yl)-thieno[2,3-d]pyrimidine-2-carbonyl]amino}acetic acid]
16 | 4.64 µM | CCc1cc2c(N3CCc4c(nc(C(F)(F)F)nc4C(F)(F)F)C3)nc(OCC(O)CO)nc2s1 (stereo not shown) [Example 6-32, 3-[4-(2,4-Bis-trifluoromethyl-5,8-dihydro-6H-pyrido[3,4-d]pyrimidin-7-yl)-6-ethyl-thieno[2,3-d]pyrimidin-2-yloxy]-propane-1,2-diol]
17 | 29.8 µM | CCc1cc2c(N3CCc4c([nH]c5ccccc45)C3)nc(N3CCNC(=O)C3)nc2s1 [Example 6-29, 4-[6-Ethyl-4-(1,3,4,9-tetrahydro-beta-carbolin-2-yl)-thieno[2,3-d]pyrimidin-2-yl]-piperazin-2-one]
18 | 4.21 µM | CCc1cc2c(N3CCn4c(nnc4C(F)(F)F)C3)nc(CN3CC[C@@H](O)C3)nc2s1 [Example 4-20, (R)-1-[6-Ethyl-4-(3-trifluoromethyl-5,6-dihydro-8H-[1,2,4]triazolo[4,3-a]pyrazin-7-yl)thieno[2,3-d]pyrimidin-2-ylmethyl]pyrrolidin-3-ol]
19 | 1.5 µM | CCc1cc2c(N3CCc4c(nc(-c5ccoc5)nc4C(F)(F)F)C3)nc(N3CCNC(=O)C3)nc2s1 [Example 6-39, 4-[6-Ethyl-4-(2-furan-3-yl-4-trifluoromethyl-5,8-dihydro-6H-pyrido[3,4-d]pyrimidin-7-yl)-thieno[2,3-d]pyrimidin-2-yl]-piperazin-2-one]
20 | 1.2 µM | CCc1cc2c(N3CCn4c(nnc4C(F)(F)C(F)(F)F)C3)nc(NCC(O)CO)nc2s1 (stereo not shown) [Example 6-2, 3-[6-Ethyl-4-(3-pentafluoroethyl-5,6-dihydro-8H-[1,2,4]triazolo[4,3-a]pyrazin-7-yl)-thieno[2,3-d]pyrimidin-2-ylamino]-propane-1,2-diol]
21 | 0.847 µM | CCc1cc2c(N3CCn4c(nnc4C(F)(F)F)C3)nc(NCC(O)CO)nc2s1 (stereo not shown) [Example 2-3, 3-[6-Ethyl-4-(3-trifluoromethyl-5,6-dihydro-8H-[1,2,4]triazolo[4,3-a]pyrazin-7-yl)-thieno[2,3-d]pyrimidin-2-ylamino]-propane-1,2-diol]
22 | 4.42 µM | CCCc1cc2c(N3CCc4c(nc(-c5ccccc5)nc4C(F)(F)F)C3)nc(N3CCNC(=O)C3)nc2s1 [Example 6-38, 4-[4-(2-Phenyl-4-trifluoromethyl-5,8-dihydro-6H-pyrido[3,4-d]pyrimidin-7-yl)-6-propyl-thieno[2,3-d]pyrimidin-2-yl]-piperazin-2-one]
23 | 2.17 µM | CCc1cc2c(N3CCn4c(nnc4C(F)(F)F)C3)nc(NCC(=O)O)nc2s1 [Example 2-9, [6-Ethyl-4-(3-trifluoromethyl-5,6-dihydro-8H-[1,2,4]triazolo[4,3-a]pyrazin-7-yl)-thieno[2,3-d]pyrimidin-2-ylamino]-acetic acid]
24 | 46.4 µM | CCc1cc2c(N3CCc4c([nH]n(CCO)c4=O)C3)nc(N3CCNC(=O)C3)nc2s1 [Example 6-43, 6-[6-Ethyl-2-(3-oxo-piperazin-1-yl)-thieno[2,3-d]pyrimidin-4-yl]-2-(2-hydroxy-ethyl)-1,2,4,5,6,7-hexahydro-pyrazolo[3,4-c]pyridin-3-one]

Same assay, conditions: 30 μM compound; 1 nM [3H] 2-Mes-ADP

Row | inhibition at 30 µM | Structure (SMILES)
25 | 39.3% | CCc1cc2c(N3CCn4cnnc4C3)nc(OCC(O)CO)nc2s1 (stereo not shown) [Example 6-11, 3-[4-(5,6-Dihydro-8H-[1,2,4]triazolo[4,3-a]pyrazin-7-yl)-6-ethyl-thieno[2,3-d]pyrimidin-2-yloxy]-propane-1,2-diol]
